According to patent publication US10450549B2, “Aryloxyphenoxypropionate tolerance in turfrgass species and use of AAD1 as a selectable marker” (Dow AgroSciences, LLC, priority 2004, dated 2019):

Columns and labels:
[1] = tested on: wt ARBTH; assay: In vitro plate test of herbicide cross resistance: wild-type Arabidopsis; assay type: in vivo, Arabidopsis thaliana; settings: 7 days
How it was run: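 Surface-sterilised seeds sown in nutrient agar dosed with test compounds from DMSO stocks (final DMSO ≤1% v/v; DMSO-only control), grown 7 days at 25 °C under continuous light (75 μE m^−2 s^−1). Shoot growth reduction scored visually; root length measured (≥5 plants averaged) vs control. I50 calculated for root and shoot.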

[2] = tested on: PAT/Cry1F-transformed Arabidopsis; assay: T1 Arabidopsis spray test, % visual injury 2 WAT: PAT/Cry1F transformed control; assay type: in vivo, Arabidopsis thaliana; settings: for % Injury 20-40% / % Injury <20% / % Injury >40%: number of individuals
Source text: Random individual T1 plants selected for glufosinate resistance above were confirmed for expression of the PAT protein using a PAT ELISA kit (Part no. 7000045, Strategic Diagnostics, Inc., Newark, Del.) to non-destructively confirm fidelity of selection process (manufacturer's protocol). Plants were then randomly assigned to various rates of phenoxy herbicides (dichlorprop or 2,4-D). […] Elevated rates were applied in subsequent trials (50, 200, 800, or 3200 g ae/ha).
All auxin herbicide applications were made using the DeVilbiss sprayer as described above to apply 703 L/ha spray volume (0.4 ml solution/3-inch pot) or applied by track sprayer in a 187 L/ha spray volume. […] Dichlorprop used was technical grade (Sigma, St. Louis, Mo.) dissolved in DMSO and diluted in water (<1% DMSO final concentration). As herbicide rates increased beyond 800 g ae/ha, the pH of the spray solution became exceedingly acidic, burning the leaves of young, tender Arabidopsis plants and complicating evaluation of the primary effects of the herbicides. It became standard practice to apply these high rates of phenoxy herbicides in 200 mM Tris buffer (pH 9.0) to a final pH of ˜7-8.
Although Arabidopsis, being a dicot, is not an optimal system for testing ACCase-inhibiting AOPP grass herbicides, AAD1 (v3)-transformed T1 plants were subjected to elevated rates (400-1600 g ae/ha) of RS-haloxyfop acid (internally synthesized) that do cause growth abnormalities and death of wildtype Arabidopsis using the DeVilbiss sprayer as described above. Injury ratings were taken 7 and 14 days after treatment. Likewise, T1 individuals were treated with the pyridyloxyacetate auxin herbicide, fluroxypyr.
Table 16. […] Response is presented in terms of % visual injury 2 WAT. […] Since each T1 is an independent transformation event, one can expect significant variation of individual T1 responses within a given rate. An arithmetic mean and standard deviation is presented for each treatment. The range in individual response is also indicated in the last column for each rate and transformation. PAT/Cry1F-transformed Arabidopsis served as an auxin-sensitive transformed control. Wildtype Arabidopsis is untransformed.
(§1) Table 17. T1 Arabidopsis response to a range of dichlroprop rates applied postemergence. Response is presented in terms of % visual injury 2 WAT. […] Since each T1 is an independent transformation event, one can expect significant variation of individual T1 responses within a given rate. An arithmetic mean and standard deviation is presented for each treatment. The range in individual response is also indicated in the last column for each rate and transformation. PAT/Cry1F-transformed Arabidopsis served as an auxin-sensitive transformed control. Wildtype Arabidopsis is untransformed.
as §1, with “18.” for “17.”, “haloxyfop” for “dichlroprop”, “postemergence at artificially high rates attempting to show tolerance of the dicot Arabidopsis to the graminicide.” for “postemergence.”

[3] = PAT/Cry1F (transformed control), 50 g ae/ha
[4] = PAT/Cry1F (transformed control), 200 g ae/ha
[5] = PAT/Cry1F (transformed control), 800 g ae/ha

## CC(Oc1ccc(Cl)cc1Cl)C(=O)O (racemic) [(R,S)-dichlorprop, 2,4-dichlorophenoxypropionic acid]
[1]
  wt ARBTH root 150: 0.01 ppm
  wt ARBTH shoot 150: 2 ppm
[2]; PAT/Cry1F, 12.5 g ae/ha
  % Injury Ave: 38.1%
  % Injury Range: 20-95%
  individuals with 20-40% injury: 6
  individuals with <20% injury: 0
  individuals with >40% injury: 2
[2]; PAT/Cry1F, 50 g ae/ha
  % Injury Ave: 80.0%
  % Injury Range: 50-100%
  individuals with 20-40% injury: 0
  individuals with <20% injury: 0
  individuals with >40% injury: 8
[2]; PAT/Cry1F, 200 g ae/ha
  % Injury Ave: 98.3%
  % Injury Range: 95-100%
  individuals with 20-40% injury: 0
  individuals with <20% injury: 0
  individuals with >40% injury: 8
[2]; PAT/Cry1F, 800 g ae/ha
  % Injury Ave: 100.0%
  % Injury Range: 100%
  individuals with 20-40% injury: 0
  individuals with <20% injury: 0
  individuals with >40% injury: 8

## O=C(O)COc1ccc(Cl)cc1Cl [2,4-D, 2,4-dichlorophenoxyacetic acid]
[1]
  wt ARBTH root 150: <0.01 ppm
  wt ARBTH shoot 150: 0.2 ppm
[2]; [3]
  % Injury Ave: 90.7%
  individuals with 20-40% injury: 0
  individuals with <20% injury: 0
  individuals with >40% injury: 15
[2]; [4]
  % Injury Ave: 97.2%
  individuals with 20-40% injury: 0
  individuals with <20% injury: 0
  individuals with >40% injury: 15
[2]; [5]
  % Injury Ave: 100.0%
  individuals with 20-40% injury: 0
  individuals with <20% injury: 0
  individuals with >40% injury: 15

## Nc1c(Cl)c(F)nc(OCC(=O)O)c1Cl [Fluroxypyr]
[1]
  wt ARBTH root 150: 0.2 ppm
  wt ARBTH shoot 150: 2 ppm

## CC(Oc1ccc(Oc2ncc(C(F)(F)F)cc2Cl)cc1)C(=O)O (stereo not drawn) [haloxyfop]
[2]; 100 g ae/ha, PAT/Cry1F
  % Injury Ave: 0.0%
  % Injury Range: 0%
  % Injury 20-40%: 0
  % Injury <20%: 4
  % Injury >40%: 0
[2]; 200 g ae/ha, PAT/Cry1F
  % Injury Ave: 10.0%
  % Injury Range: 10%
  % Injury 20-40%: 0
  % Injury <20%: 4
  % Injury >40%: 0
[2]; 400 g ae/ha, PAT/Cry1F
  % Injury Ave: 27.5%
  % Injury Range: 20-30%
  % Injury 20-40%: 4
  % Injury <20%: 0
  % Injury >40%: 0
[2]; 800 g ae/ha, PAT/Cry1F
  % Injury Ave: 78.8%
  % Injury Range: 70-85%
  % Injury 20-40%: 0
  % Injury <20%: 0
  % Injury >40%: 4
[2]; 1600 g ae/ha, PAT/Cry1F
  % Injury Ave: 47.5%
  % Injury Range: 80-100%
  % Injury 20-40%: 0
  % Injury <20%: 0
  % Injury >40%: 4
